This is an account of results in PMC4995692, “An assay to measure poly(ADP ribose) glycohydrolase (PARG) activity in cells” (F1000Research, 2016).

One experiment concerns SW620 cells. The experiment is described as follows: SW620 proliferation after MMS (Hoechst stain). The settings on record: MMS 72 h. It counts as cell-based, human.
The next experiment deals with control Hela cells. The experiment is described as follows: Growth inhibition by MMS in control Hela cells. It counts as cell-based. The settings on record: Homo sapiens, 120 h, 5 days.
The test system of the next experiment is H1048 cells. The experiment in a line: SRB assay, MMS sensitivity of H1048. It counts as cell-based. The settings on record: Homo sapiens, NCI-H1048, 72 h. Here is the method: (§1) Cells in 96-well plates were fixed with the addition of 100 µL ice cold 10% trichloroacetic acid to the media. After 1 h at 4°C, the cells were washed twice with PBS and left to dry. Once dry, 100 µL 0.2% sulforhodamine B (SRB) was add to each well and incubated for 15 min at room temperature. The cells were washed three times with 200 µL 1% acetic acid and then dried. To solubilise the remaining SRB, 200 µL 10 mM Tris pH10.5 was added to each well and the plate incubated with agitation for 10 min. Absorbance at 520 nm was measured on a plate reader (Biotek, Swindon, UK).

For experiment [1], the system named is Murine embryonic fibroblasts (MEFs). The experiment is described as follows: SRB assay, MMS sensitivity of MEFs. It counts as cell-based. The settings on record: Mus musculus, Fibroblast, 72 h. The method, then: as §1
Experiment [2] relates to nuclear PAR chains in Hela cells. Format: cell-based, human. The settings on record: 250 µg/mL MMS. Here is the method:
Exponentially growing HeLa cells were trypsinized and resuspended in complete media before being filtered through a […] cell strainer (#352340, BD Falcon, Oxford, UK). Cells were then counted using a Muse cell counter (Merck Millipore, Hertfordshire, UK) and seeded in 30 µL of media at 4×10 ^4 cells/mL in Greiner 384-well plates (#781091, Greiner Bio-One, Stonehouse, UK) and placed in a cell culture incubator. After 16–24 h the plates were centrifuged briefly at 164× g and the cells dosed with compound(s) or vehicle (DMSO) control using an Echo 550 (Labcyte, Dublin, Ireland). […] After 1 h the plate was re-spun and cells co-dosed with different concentrations of MMS (50–250 µg/mL final concentration) or DMSO using the Echo 550 and incubated for a given time (30 min–2 h) at 37°C in a cell culture incubator. […] Following three washes with PBS, the plates were sealed and images captured using a 10× objective on a CellInsight (ThermoFisher) and analysed using Cellomics Scan compartmental analysis software (ThermoFisher). A threshold determined by assessing the signal in DMSO treated cells was applied to the pixel intensity and a Box Detection application was used to detect objects smaller than five pixels in radius within the nucleus. […]

Experiment [3] relates to PAR chains in PARG KD cells. The experiment is described as follows: PAR chain detection after MMS, preliminary western blot. It counts as cell-based, human. The settings on record: 250 µg/mL MMS.
The test system of experiment [4] is PARG KD Hela cells (PARG Silencix). The experiment is described as follows: Growth inhibition by MMS in PARG KD Hela cells. Format: cell-based. The settings on record: Homo sapiens, 120 h, 5 days.
The target in the next experiment is PARG (Homo sapiens, UniProt Q86W56). The experiment in a line: PAR chain assay in SW620 cells with temozolomide. It counts as cell-based.

Entries after “also recorded” stand apart in the source; their conditions may differ.

PARG, sequence (Q86W56 whole entry): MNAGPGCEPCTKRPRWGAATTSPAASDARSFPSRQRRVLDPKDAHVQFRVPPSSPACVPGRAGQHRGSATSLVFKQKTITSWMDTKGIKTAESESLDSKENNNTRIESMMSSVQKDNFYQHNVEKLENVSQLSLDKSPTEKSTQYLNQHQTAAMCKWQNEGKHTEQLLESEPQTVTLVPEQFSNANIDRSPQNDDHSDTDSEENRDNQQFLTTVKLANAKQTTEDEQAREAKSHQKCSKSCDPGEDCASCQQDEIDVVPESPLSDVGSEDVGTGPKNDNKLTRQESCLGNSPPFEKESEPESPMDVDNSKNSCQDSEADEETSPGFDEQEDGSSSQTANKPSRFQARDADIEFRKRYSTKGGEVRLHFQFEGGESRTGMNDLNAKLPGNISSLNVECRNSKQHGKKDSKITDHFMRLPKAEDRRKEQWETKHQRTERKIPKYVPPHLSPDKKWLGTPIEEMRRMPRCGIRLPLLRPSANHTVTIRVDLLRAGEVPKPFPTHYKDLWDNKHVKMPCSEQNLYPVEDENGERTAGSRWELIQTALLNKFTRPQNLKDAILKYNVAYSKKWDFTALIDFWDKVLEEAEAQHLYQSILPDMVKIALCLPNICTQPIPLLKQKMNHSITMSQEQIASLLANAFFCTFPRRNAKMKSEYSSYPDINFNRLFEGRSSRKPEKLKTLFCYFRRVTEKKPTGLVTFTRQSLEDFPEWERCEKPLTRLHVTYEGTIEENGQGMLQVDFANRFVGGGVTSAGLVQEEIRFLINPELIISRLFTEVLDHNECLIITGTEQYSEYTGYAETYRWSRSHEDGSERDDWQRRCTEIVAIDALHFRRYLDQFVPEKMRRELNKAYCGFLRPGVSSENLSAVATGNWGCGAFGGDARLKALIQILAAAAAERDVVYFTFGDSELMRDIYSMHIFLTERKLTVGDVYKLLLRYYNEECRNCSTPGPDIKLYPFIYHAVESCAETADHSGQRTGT

For the compound `COS(C)(=O)=O` [MMS, Methylmethanesulfonate], the proliferation result in the experiment on SW620 cells was “dose-dependent decrease”. Also, the IC50 in the experiment with control Hela cells was determined as 16.5 mg/L; with H1048 cells it was 9 µM; in experiment [1] it was 14.5 µM; in experiment [4], 6.2 mg/L. In experiment [2], the “time of maximum nuclear PAR signal” value is 25 min. Moreover, the “time of peak of PAR chains after MMS addition” value in experiment [3] is given as “approximately 20 min”.

Consider `Cn1nnc2c(C(N)=O)ncn2c1=O` [TMZ, Temozolomide], for which the PAR signal entry at PARG (one hour after TMZ alone) is “no PAR signal detectable”.

Consider `O=C(c1cc(Cc2n[nH]c(=O)c3ccccc23)ccc1F)N1CCN(C(=O)C2CC2)CC1` [olaparib], for which the PAR signal entry on PARG (increasing concentrations of compound, 150 µg/mL temozolomide for 1 h) is reported as “did not lead to any increase; also recorded: no effect”; at PARG (pre-treated at 300 nM, 1 h temozolomide 1.5-200 µg/mL), “no effect”.
